Measurements from patent US11219627B2, “Clearance of amyloid beta” (priority 2014, dated 2022).
Read-outs that look alike come from different tables or passages of the source.

Key:
nicotinic receptors = details: cited from earlier work
Aβ1-40 = Aβ1-40 (Homo sapiens, UniProt P05067); details: 500 nM; 50 μM Aβ1-40; cited from earlier work
[1] = test system: mice transgenic for a single, different Swedish APP mutation; details: ten days at 2 mg/kg/day; cited from earlier work
[2] = test system: Primary rat cultured cortical neurons; details: cited from earlier work
[3] = test system: Mice with lesions of the nucleus basalis magnocellularis (nBm); details: cited from earlier work
[4] = test system: serum tumor necrosis factor (TNF); details: cited from earlier work
α7 nicotinic receptors = molecular target: T1, α7 nicotinic receptors (Rattus norvegicus, UniProt Q05941); details: 1 μM; 1.5 mM choline; cited from earlier work
T1 construct: Primary cultured rat neurons can be depolarized by the application of 1.5 mM choline; endogenous in cells; host or cells: primary cultured rat neurons
T1 sequence (Q05941 23-502): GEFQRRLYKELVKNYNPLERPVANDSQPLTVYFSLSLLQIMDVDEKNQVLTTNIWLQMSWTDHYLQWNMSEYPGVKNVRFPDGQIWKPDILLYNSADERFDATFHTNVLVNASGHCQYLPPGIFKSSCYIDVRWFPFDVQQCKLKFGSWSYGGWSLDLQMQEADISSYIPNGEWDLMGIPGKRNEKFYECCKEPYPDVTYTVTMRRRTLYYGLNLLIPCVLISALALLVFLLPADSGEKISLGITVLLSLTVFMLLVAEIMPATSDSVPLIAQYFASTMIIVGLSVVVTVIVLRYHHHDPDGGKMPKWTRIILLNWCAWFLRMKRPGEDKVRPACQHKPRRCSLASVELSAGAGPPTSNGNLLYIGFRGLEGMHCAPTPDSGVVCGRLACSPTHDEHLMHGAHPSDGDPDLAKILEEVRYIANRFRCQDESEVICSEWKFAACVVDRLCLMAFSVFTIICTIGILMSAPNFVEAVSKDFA

CSF Aβ = details: in vivo; cited from earlier work
neuroblastoma cells = details: 300 nM; cited from earlier work
[5] = human patients; cited from earlier work
MCI patients = details: cited from earlier work
[6] = test system: mild-to-moderate AD patients; details: cited from earlier work
β-secretase = details: 300 nM; cited from earlier work
[7] = test system: adrenal chromaffin and human neuroblastoma cells; details: 100 to 300 nM; Aβ1-40 10 μM; cited from earlier work
[8] = test system: mice transgenic for an anti-NGF (nerve growth factor) antibody; details: 3.5 mg/kg/day, cited from earlier work
APdE9 mice = details: cited from earlier work; for insoluble Aβ in mouse brains: 2 months
[9] = test system: mild-to-moderate AD patients; experiment: two-year randomized trial of galantamine and placebo; assay type: in vivo, human; details: 24 months
CSF Aβ42 = details: single-dose study, dose-dependent; cited from earlier work
[10] = test system: patients with Alzheimer's disease; experiment: combined solanezumab phase III studies by standard of care subgroup; assay type: in vivo, human
Source text: The notion that the Alzheimer brain, and the brain which is developing, but has not yet reached the stage of classical Alzheimer's disease with dementia is impaired by both excess Aβ in the region of plaques, and subnormal Aβ concentrations in the ISF bathing healthy tissue away from plaques, has important treatment implications. The clinical outcome measures used to evaluate interventions designed to alter the course of AD depend on the function of intact, healthy synapses. Anti-amyloid agents would not be expected to target plaques and spare healthy tissue, but rather to further decrease ISF Aβ, which is already reduced to about half of normal in patients with AD or classical MCI. […] (J Alz Dis 2013; 33, S111-S120) 3D6, the […] of bapineuzemab, impaired neuronal viability, as have large doses of γ- and β-secretase inhibitors. […] The combined solanezumab phase III studies have been analyzed for solanezumab's performance in patients with and without cholinesterase inhibitor and memantine treatments (called standard of care—SOC). […] ChEls might improve the function of the normal cells, allowing the antibody to show a net benefit because of its binding of Aβ where it is toxic.

[11] = test system: patients with Alzheimer's disease; details: cited from earlier work
mild to moderate AD = details: cited from earlier work; for reduction in loss on the ADAS-cog: mild patients

Chain of Aβ1-40 (P05067 672-711 limits assumed): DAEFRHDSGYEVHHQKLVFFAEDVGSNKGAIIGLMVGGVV

Q: Which “blockade of nicotinic receptors” value (nicotinic receptors) does the source give for `CC12CC3CC(C)(C1)CC(N)(C3)C2` [Memantine] here?
A: Its value is “potent blocker of nicotinic receptors”.

Q: For `COc1ccc2c3c1O[C@H]1C[C@@H](O)C=C[C@@]31CCN(C)C2` [galantamine, (4aS,6R,8aS)-5,6,9,10,11,12-hexahydro-3-methoxy-11-methyl-4aH-[1]benzofuro[3a,3,2-ef][2]benzazepin-6-ol], which “aggregation of Aβ1-40” value (Aβ1-40) is on record?
A: Its value is “reduce aggregation”.

Q: What about the “insoluble or soluble Aβ species” value [1] of the same compound?
A: Its value is “did not reduce insoluble or soluble Aβ species”.

Q: And the synaptophysin levels [1]?
A: The synaptophysin levels was “significantly raise synaptophysin levels”.

Q: What about the “protection of neurons against Aβ plus glutamate” value ([2]; 0.1 μM) of the same compound?
A: The value was “intermediate effect which is not statistically significant”.

Q: And the “protection of neurons against Aβ plus glutamate” value ([2]; 1.0 μM)?
A: The value was “protects neurons against Aβ plus glutamate”.

Q: And the “additional time remaining in the lighted compartment versus saline” value ([3]; given during training, optimal performance)?
A: Its value is “about 125 seconds”.

Q: And the “best dose for memory enhancement” value ([3]; passive avoidance)?
A: Its value is 3 mg/kg.

Q: And the “serum tumor necrosis factor (TNF)” value ([4]; 1 mg/kg, administered prior to endotoxin)?
A: The value was “significantly reduces serum tumor necrosis factor (TNF)”.

Q: What about the “dose at which survival is improved significantly” value ([4]; endotoxin) of the same compound?
A: Its value is 4 mg/kg.

Q: And the “enhancement of the depolarization caused by choline” value (α7 nicotinic receptors)?
A: Its value is 20.6±4.2%.

Q: What about the “effect on CSF Aβ” value (CSF Aβ) of the same compound?
A: The value was “does not lower CSF Aβ”.

Q: And the “release of Aβ1-40 and Aβ1-42” value (neuroblastoma cells)?
A: Its value is “decreased”.

Q: What about the plasma half-life [5] of the same compound?
A: The plasma half-life was “about 7 hours”.

Q: What about the deaths (MCI patients; 24-month study period, all patients entered) of the same compound?
A: The deaths was 34.

Q: And the “reduction of global atrophy (serial MRIs) versus placebo” value (MCI patients; subpopulation of two-year MCI study)?
A: The value was 33%.

Q: What about the deaths (MCI patients; within 30 days of stopping galantamine) of the same compound?
A: The deaths was 14.

Q: What about the MMSE change ([6]; 6 months) of the same compound?
A: Its MMSE change is 0.15.

Q: And the “MMSE difference versus placebo” value ([6]; 6 months)?
A: The value was 0.43.

Q: What about the “Disability Assessment in Dementia change” value ([6]; 12 months) of the same compound?
A: The value was −4.55.

Q: What about the “Disability Assessment in Dementia difference versus placebo” value ([6]; 12 months) of the same compound?
A: The value was 1.95.

Q: What about the MMSE deterioration ([6]; 24 months, patients receiving memantine removed) of the same compound?
A: Its MMSE deterioration is 1.12 points.

Q: What about the “Disability Assessment in Dementia change” value ([6]; 24 months) of the same compound?
A: The value was −8.16.

Q: And the “Disability Assessment in Dementia difference versus placebo” value ([6]; 24 months)?
A: Its value is 2.65.

Q: And the MMSE change ([6]; 24 months)?
A: The MMSE change was −1.41.

Q: And the “MMSE difference versus placebo” value ([6]; 24 months)?
A: Its value is 0.73.

Q: What about the “mortality less than in placebo patients” value ([6]; in vivo) of the same compound?
A: The value was 42%.

Q: What about the “activity of β-secretase” value (β-secretase) of the same compound?
A: Its value is “decreased”.

Q: And the Aβ1-40-induced apoptosis [7]?
A: Its Aβ1-40-induced apoptosis is “reduced Aβ1-40-induced apoptosis”.

Q: What about the “intracellular Aβ deposits” value ([8]; after 15 days) of the same compound?
A: Its value is “decreased intracellular Aβ deposits”.

Q: And the ChAT activity [8]?
A: Its ChAT activity is “restored ChAT activity”.

Q: And the “insoluble Aβ in mouse brains” value (APdE9 mice; 1 mg/kg/day)?
A: The value was “significantly reduced insoluble (fibrillar) Aβ1-40”.

Q: What about the “insoluble Aβ in mouse brains” value (APdE9 mice; 5 mg/kg/day) of the same compound?
A: The value was “reduced both Aβ1-40 and Aβ1-42”.

Q: And the “soluble Aβ species” value (APdE9 mice; 1 or 5 mg/kg/day)?
A: Its value is “Neither dose significantly affected soluble Aβ species”.

Q: And the “Disability Assessment in Dementia percent difference versus placebo” value [9]?
A: Its value is 24%.

Q: What about the “MMSE percent difference versus placebo” value [9] of the same compound?
A: Its value is 34%.

Q: What about the “reduction of MMSE deterioration versus placebo” value ([9]; patients receiving memantine removed) of the same compound?
A: Its value is 48%.

Q: Which “rise in CSF Aβ42” value (CSF Aβ42) does the source give for “Solanezumab: antibody directed at the central portion of Aβ” here?
A: The value was “up to 35%”.

Q: And the “benefit on the ADAS-cog versus placebo” value ([10]; cholinesterase inhibitors, without memantine)?
A: The value was 2.1 points.

Q: What about the “excess cognitive deterioration on the ADAS-cog versus placebo” value ([10]; patients not receiving cholinesterase inhibitors) of the same compound?
A: The value was 3.6 points.

Q: What about the “excess cognitive deterioration on the ADAS-cog versus placebo” value ([10]; patients on memantine only) of the same compound?
A: The value was 4.1 points.

Q: And the “LS Mean Change (SE) from Baseline to Week 80 in ADAS-Cog14 Scores” value (shortened to “LS Mean Change (SE) from Baseline”) ([11]; AChEI + Memantine)?
A: Its value is 9.8 (0.8).

Q: And the “LS Mean Change (SE) from Baseline” value ([11]; AChEI only)?
A: The value was 6.8 (0.5).

Q: What about the “LS Mean Change (SE) from Baseline” value ([11]; Memantine only) of the same compound?
A: Its value is 11.2 (1.9).

Q: And the “LS Mean Change (SE) from Baseline” value ([11]; No SOC)?
A: Its value is 6.5 (1.3).

Q: What about the “reduction of functional decline (ADCS-ADL)” value (mild to moderate AD; Expedition II) of the same compound?
A: The value was 19%.

Q: And the “reduction in loss on the ADAS-cog” value (mild to moderate AD; Expedition I)?
A: Its value is 42%.

Q: What about the “reduction in loss on the ADAS-cog” value (mild to moderate AD; Expedition II) of the same compound?
A: Its value is 20%.

Q: And the “decrease of activities of daily living loss” value (mild to moderate AD; mild subgroups combined)?
A: Its value is 17%.

Q: And the “slowing of cognitive loss” value (mild to moderate AD; mild subgroups combined)?
A: The value was 34%.
